Assay: Apparent pKa of ionizable cationic lipid
Assay type: physicochemical

**Q.** For `CCCCCCCCC1CC1CCCCCCCCC(CCCCCCCCC1CC1CCCCCCCC)OC(=O)CCCN(C)C` (stereo not shown) [Cationic Lipid A, 1,17-bis(2-octylcyclopropyl)heptadecan-9-yl-4-(dimethylamino)butanoate], which pKa is on record?
**A.** Its pKa is 6.3.
